Drawing on BindingDB's records for doi:10.1021/jm0301078 (Merck Frosst Centre For Therapeutic Research, 2003), this text covers IC50 for eight compounds.

Molecules are shown by their SMILES.

Experiment in all cases: Enzyme Inhibition Assay
Assay [1] addresses Cathepsin S (Homo sapiens, UniProt P25774). The protocol:
(§1) Prior to the addition of substrate, different concentrations of the inhibitor ranging from 100 uM to 0.2 nM were preincubated for 15 min with enzyme to allow the establishment of the enzyme-inhibitor complex. The proteolytic cleavage of N-acyl aminocoumarins by cathepsins was conducted in 96-well plate format and the plate read using a Spectramax (Molecular Devices) plate reader. […] The percent inhibition of the reaction was calculated from a control reaction containing only vehicle. IC50 curves were generated by fitting percent inhibition values to a four parameter logistic model (SOFTMAX PRO, Molecular Devices).

Assay [2] concerns the target T1, Cathepsin K (Homo sapiens, UniProt P43235).
T1 sequence (P43235 whole entry): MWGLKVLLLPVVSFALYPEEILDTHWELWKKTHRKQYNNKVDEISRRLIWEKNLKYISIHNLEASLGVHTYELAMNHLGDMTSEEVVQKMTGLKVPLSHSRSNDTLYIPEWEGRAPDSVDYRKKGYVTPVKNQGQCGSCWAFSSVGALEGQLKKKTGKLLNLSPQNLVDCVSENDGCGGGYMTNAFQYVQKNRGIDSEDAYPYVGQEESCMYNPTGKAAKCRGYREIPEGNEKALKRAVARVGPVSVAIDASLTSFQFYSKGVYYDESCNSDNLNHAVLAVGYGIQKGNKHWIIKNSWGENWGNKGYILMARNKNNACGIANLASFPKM
Conditions: pH 5.5; 22 °C. The protocol:
as §1

For assay [3], the target named is Procathepsin L (Homo sapiens, UniProt P07711). As for the experimental part:
as §1

Sequence of Procathepsin L (P07711 whole entry): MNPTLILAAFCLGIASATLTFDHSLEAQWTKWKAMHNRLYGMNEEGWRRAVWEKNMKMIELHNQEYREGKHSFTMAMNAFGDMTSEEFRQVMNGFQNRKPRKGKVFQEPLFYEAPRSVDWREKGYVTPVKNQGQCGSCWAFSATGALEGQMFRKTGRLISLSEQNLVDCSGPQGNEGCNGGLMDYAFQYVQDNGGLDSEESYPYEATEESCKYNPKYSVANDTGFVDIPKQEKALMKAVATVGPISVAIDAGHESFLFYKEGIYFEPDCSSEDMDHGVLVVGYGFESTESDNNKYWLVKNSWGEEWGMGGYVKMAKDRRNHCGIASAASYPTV
Sequence of Cathepsin S (P25774 whole entry): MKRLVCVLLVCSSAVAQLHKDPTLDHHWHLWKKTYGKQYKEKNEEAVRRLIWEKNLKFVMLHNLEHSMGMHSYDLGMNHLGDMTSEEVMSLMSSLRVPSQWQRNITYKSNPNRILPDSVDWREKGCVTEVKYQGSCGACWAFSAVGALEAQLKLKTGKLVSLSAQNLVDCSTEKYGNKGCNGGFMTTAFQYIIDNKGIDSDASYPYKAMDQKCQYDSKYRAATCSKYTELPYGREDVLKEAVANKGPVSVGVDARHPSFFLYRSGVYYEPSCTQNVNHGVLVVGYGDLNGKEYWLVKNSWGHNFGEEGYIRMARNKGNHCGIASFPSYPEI

With `CC(C)C[C@@H](C(=O)NCC#N)c1cccc(-c2ccc(-c3nnn[nH]3)cc2)c1` [(2R)-N-(cyanomethyl)-4-methyl-2-{3-[4-(1H-1,2,3,4-tetrazol-5-yl)phenyl]phenyl}pentanamide], the IC50 was above 10 µM in assay [1], 2.58 µM in assay [2] and above 10 µM in assay [3].

Take `CC(C)CC(C(=O)NCC#N)c1cccc(-c2ccccn2)c1` (centres undefined) [N-(cyanomethyl)-4-methyl-2-[3-(pyridin-2-yl)phenyl]pentanamide]: the IC50 came to 8.04 µM in assay [1], 0.803 µM in assay [2] and 5.95 µM in assay [3].

In the case of `CC(C)CC(C(=O)NCC#N)c1cccc(-c2cccnc2)c1` (centres undefined) [N-(cyanomethyl)-4-methyl-2-[3-(pyridin-3-yl)phenyl]pentanamide], the IC50 is above 10 µM in assay [1], 0.488 µM in assay [2] and 5.58 µM in assay [3].

As for `CC(C)CC(C(=O)NCC#N)c1cccc(-c2ccncc2)c1` (centres undefined) [N-(cyanomethyl)-4-methyl-2-[3-(pyridin-4-yl)phenyl]pentanamide], the IC50 in assay [1] turned out to be 1.75 µM; in assay [2], 0.15 µM; in assay [3] it was 5.78 µM.

Consider `CC(C)CC(C(=O)NCC#N)c1cccc(-c2ccccc2N2CCOCC2)c1` (centres undefined) [N-(cyanomethyl)-4-methyl-2-{3-[2-(morpholin-4-yl)phenyl]phenyl}pentanamide], for which the IC50 was 3.37 µM in assay [1], 0.614 µM in assay [2] and 0.919 µM in assay [3].

For `CC(C)CC(C(=O)NCC#N)c1cccc(-c2ccccc2N2CCNCC2)c1` (centres undefined) [N-(cyanomethyl)-4-methyl-2-{3-[2-(piperazin-1-yl)phenyl]phenyl}pentanamide], the values for the IC50 in assay [1], in assay [2] and in assay [3] were 0.521 µM, 0.058 µM and 0.338 µM, respectively.

In the case of `CC(C)CC(C(=O)NCC#N)c1cccc(-c2cccc(N3CCOCC3)c2)c1` (centres undefined) [N-(cyanomethyl)-4-methyl-2-{3-[3-(morpholin-4-yl)phenyl]phenyl}pentanamide], the concentration for half-maximal inhibition (IC50) in assay [1] was above 10 µM; in assay [2], 0.63 µM; in assay [3], above 10 µM.

Take `CC(C)CC(C(=O)NCC#N)c1cccc(-c2cccc(N3CCNCC3)c2)c1` (centres undefined) [N-(cyanomethyl)-4-methyl-2-{3-[3-(piperazin-1-yl)phenyl]phenyl}pentanamide]: the IC50 in assay [1] was above 10 µM; in assay [2], 0.216 µM; in assay [3] it was above 10 µM.
